Reference: patent US12600732B2, “Bifunctional compounds for degrading BTK via ubiquitin proteosome pathway” (NURIX THERAPEUTICS, INC., priority 2019, dated 2026)

Assays:
[1] = system: TMD8 cells; assay: Cell viability assay (CellTiter-Glo), TMD8 cells; conditions: for EC50: Homo sapiens, TMD8, 72 h; for EMAX (% viable cells): TMD8 cells, treatment time 72 h
[2] = system: TMD8 C481S cells; assay: Cell viability assay (CellTiter-Glo), TMD8 C481S cells; conditions: for EC50: Homo sapiens, TMD8, 72 h; for EMAX (% viable cells): TMD8 C481S cells, treatment time 72 h
[3] = target: T1, BTK (Mus musculus, UniProt P35991); assay: In vivo degradation of BTK in mouse PD experiments with oral dosing
T1 construct: from tissue; host or cells: mouse blood B cells / splenocytes (CD-1 or BALB/c)
T1 sequence (P35991 whole entry): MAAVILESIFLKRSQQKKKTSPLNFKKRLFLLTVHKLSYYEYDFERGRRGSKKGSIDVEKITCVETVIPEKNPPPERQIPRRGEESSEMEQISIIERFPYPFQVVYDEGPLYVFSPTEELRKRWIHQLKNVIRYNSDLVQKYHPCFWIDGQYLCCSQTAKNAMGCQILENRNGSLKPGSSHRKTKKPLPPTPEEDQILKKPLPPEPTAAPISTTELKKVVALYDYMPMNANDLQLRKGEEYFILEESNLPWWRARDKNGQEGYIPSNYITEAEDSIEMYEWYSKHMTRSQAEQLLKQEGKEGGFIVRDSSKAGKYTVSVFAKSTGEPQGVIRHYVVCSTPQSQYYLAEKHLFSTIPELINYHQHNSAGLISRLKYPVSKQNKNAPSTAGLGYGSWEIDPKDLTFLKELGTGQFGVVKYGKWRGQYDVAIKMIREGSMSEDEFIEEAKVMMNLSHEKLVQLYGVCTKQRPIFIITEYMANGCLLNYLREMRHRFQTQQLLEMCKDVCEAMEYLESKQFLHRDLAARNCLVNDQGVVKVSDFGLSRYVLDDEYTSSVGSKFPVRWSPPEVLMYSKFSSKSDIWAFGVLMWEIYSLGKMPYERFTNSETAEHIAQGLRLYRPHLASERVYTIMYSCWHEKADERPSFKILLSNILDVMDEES
Method: A method of determining the pharmacodynamic profile of BTK degraders was performed by dosing either CD-1 or BALB/c mice with CTM. The CTM was prepared in a suitable formulation and was administered via oral gavage (PO) at a suitable dose level and frequency as informed by prior pharmacokinetic and tolerability studies. Following administration of CTM, BTK levels in blood or splenocytes are measured using flow cytometry or HTRF. For assessment of BTK levels via flow cytometry, either whole blood or splenocytes were first treated with ACK RBC lysis buffer to facilitate lysing of red blood cells. Remaining cells were then stained with fluorophore-conjugated antibodies against CD45, TCR beta and CD45R (B220). Cell pellets were washed with 1×PBS, fixed, and permeabilized for twenty-four hours with Foxp3/Transcription Factor Fixation/Permeabilization Kit. Cells were then stained intracellularly with unconjugated BTK antibody and detected with a fluorophore-conjugated secondary antibody. Stained cells were run on an Attune N×T Acoustic Focusing Flow Cytometer (Thermo-Fisher A29004), and data was analyzed using FlowJo (v10.5.3) and GraphPad Prism (v7.00) software. Lymphocytes were gated for B cells defined as CD45+ TCR beta−B220+ and T cells as CD45+ TCR beta+B220−. The BTK geometric mean fluorescence intensity (MFI) was calculated for B and T cells. Percent BTK degradation for each compound-treated sample was calculated using the equation described below: % Degradation=100*(Treated sample B cell BTK MFI-treated sample T cell BTK MFI)/Vehicle B cell BTK MFI-Vehicle T cell BTK MFI)
This example evaluates in vivo activity of BTK CTMs via a direct mouse PD measurement following oral dosing
Screens were completed at 90 mg/kg for six hours, and then changed to lower doses/longer time points after seeing strong BTK degradation activity with an initial set of compounds. This assay was useful in selecting compounds for in vivo efficacy experiments.

[4] = system: primary human T cells; assay: T cell activation assay, IL-2 secretion (ELISA); type: cell-based
Method: (§1) This example evaluates whether CTMs with IMiD activity affect T cell activation. […] These assays were performed to assess whether BTK CTMs with and without IMiD activity affected activation of primary human T cells after stimulation of the T cell receptor with anti-CD3/ati-CD28 stimulation. T cell activation was measured by IL-2 secretion (ELISA assay) and upregulation of activation markers CD25 and CD69 on the surface of T cells (flow cytometry). Data are presented as the fold-change of response relative to baseline (stimulation with anti-CD3/anti-CD28 stimulation in the absence of compound).

[5] = system: primary human T cells; assay: T cell activation assay, CD25 and CD69 staining (flow cytometry); type: cell-based; conditions: fold-change of response relative to baseline
Method: as §1

[6] = PK data for BTK CTMs (in vivo plasma concentrations); conditions: Mouse Balb/c
Excerpt: The present example evaluates in vivo plasma concentrations of BTK CTMs to develop PK-PD-efficacy relationship and predict human exposure.

[7] = oral dose 90 mg/kg, 6 h, splenocytes, HTRF
[8] = oral dose 3 mg/kg, 6 h, blood, flow cytometry
[9] = oral dose 3 mg/kg, 24 h, blood, flow cytometry
[10] = oral dose 30 mg/kg, 24 h, blood, flow cytometry

| Structure (SMILES) | % BTK Remaining [3, 7] [%] | EC50 [1] [nM] | EMAX (% viable cells) [1] [%] | EC50 [2] [nM] | EMAX (% viable cells) [2] [%] | other results |
| --- | --- | --- | --- | --- | --- | --- |
| CN1CCN([C@H]2CCCN(c3cnc(C(N)=O)c(Nc4ccc(N5CCC6(CCN(c7ccc8c(c7)C(=O)N(C7CCC(=O)NC7=O)C8=O)CC6)CC5)nc4)n3)C2)C1=O (some centres unmarked) [Compound 80] |  | 45.2 | 45 | 125 | 78 | % BTK Remaining ([3]; oral dose 0.3 mg/kg, 24 h, blood, flow cytometry): 88%; % BTK Remaining ([3]; oral dose 0.3 mg/kg, 24 h, splenocytes, flow cytometry): 115%; % BTK Remaining [3, 8]: 96%; % BTK Remaining [3, 9]: 77%; % BTK Remaining ([3]; oral dose 3 mg/kg, 24 h, splenocytes, flow cytometry): 111%; % BTK Remaining ([3]; oral dose 10 mg/kg, 24 h, blood, flow cytometry): 59%; % BTK Remaining ([3]; oral dose 10 mg/kg, 24 h, splenocytes, flow cytometry): 74%; % BTK Remaining [3, 10]: 52%; % BTK Remaining ([3]; oral dose 30 mg/kg, 24 h, splenocytes, flow cytometry): 69%; % BTK Remaining ([3]; oral dose 90 mg/kg, 24 h, blood, flow cytometry): 48%; % BTK Remaining ([3]; oral dose 90 mg/kg, 24 h, splenocytes, flow cytometry): 65% |
| CN1CCN([C@@H]2CCCN(c3cnc(C(N)=O)c(Nc4ccc(OCCCNc5ccc6c(c5)C(=O)N(C5CCC(=O)NC5=O)C6=O)cc4)n3)C2)C1=O (some centres unmarked) [Compound 64] |  |  |  |  |  | IL-2 Secretion Anti-CD3/Anti-CD28 Stimulation ([4]; 1.4 nM, fold-change of response relative to baseline): 1.28; IL-2 Secretion Anti-CD3/Anti-CD28 Stimulation ([4]; 37 nM, fold-change of response relative to baseline): 1.80; IL-2 Secretion Anti-CD3/Anti-CD28 Stimulation ([4]; 333 nM, fold-change of response relative to baseline (stimulation without compound)): 1.48; CD25 Staining Anti-CD3/Anti-CD28 Stimulation ([5]; 1.4 nM): 1.17; CD69 Staining Anti-CD3/Anti-CD28 Stimulation ([5]; 1.4 nM): 1.14; CD25 Staining Anti-CD3/Anti-CD28 Stimulation ([5]; 37 nM): 1.04; CD69 Staining Anti-CD3/Anti-CD28 Stimulation ([5]; 37 nM): 1.14; CD25 Staining Anti-CD3/Anti-CD28 Stimulation ([5]; 333 nM): 0.34; CD69 Staining Anti-CD3/Anti-CD28 Stimulation ([5]; 333 nM): 0.64 |
| CN1CCN([C@@H]2CCCN(c3cnc(C(N)=O)c(Nc4ccc(C5CCN(C[C@H]6CCN(c7ccc8c(=O)n(C9CCC(=O)NC9=O)ccc8c7)C6)CC5)cc4)n3)C2)C1=O (some centres unmarked) [Compound 115] |  | 2.74 | 13 | 1.93 | 16 | % BTK Remaining [3, 10]: 30% |
| CN1CCN([C@@H]2CCCN(c3cnc(C(N)=O)c(Nc4cnn(C5CN(CC6CCN(c7ccc8c(c7)C(=O)N([C@@H]7CCC(=O)NC7=O)C8=O)CC6)C5)c4)n3)C2)C1=O [Compound 209] |  | 7.41 | 49 | 55.2 | 44 |  |
| CN1CCN([C@@H]2CCCN(c3cnc(C(N)=O)c(Nc4ccc(C5CCN(C6CN(Cc7ccc8c(c7)CN(C7CCC(=O)NC7=O)C8=O)C6)CC5)cc4)n3)C2)C1=O (some centres unmarked) [Compound 86] |  | 0.67 | 27 | 4.78 | 30 | AUC ([6]; 1 mg/kg IV): 0.5 µM·h; clearance ([6]; 1 mg/kg IV): 35 mL/min/kg; Vd ([6]; 1 mg/kg IV, read-out: Volume of Distribution): 7.7 L/kg; AUC ([6]; 30 mg/kg PO): 0.34 µM·h; bioavailability ([6]; 30 mg/kg PO): 2%; % BTK Remaining [3, 8]: 56%; % BTK Remaining [3, 9]: 70% |

Now from value to compound, other results behind:

| % BTK Remaining [3, 7] [%] | Structure (SMILES) | EC50 [1] [nM] | EMAX (% viable cells) [1] [%] | EC50 [2] [nM] | EMAX (% viable cells) [2] [%] | other results |
| --- | --- | --- | --- | --- | --- | --- |
| 1 | CN1CCN([C@@H]2CCCN(c3cnc(C(N)=O)c(Nc4ccc(C5CCN(CC6CN(c7ccc8c(c7)C(=O)N(C7CCC(=O)NC7=O)C8=O)C6)CC5)cc4)n3)C2)C1=O (some centres unmarked) [Compound 54] | 0.61 | 13 | 7.11 | 6 |  |
| 7 | CN1CCN([C@@H]2CCCN(c3cnc(C(N)=O)c(Nc4ccc(N5CCN(C[C@@H]6CCN(c7ccc8c(c7)C(=O)N(C7CCC(=O)NC7=O)C8=O)C6)CC5)cc4)n3)C2)C1=O (some centres unmarked) [Compound 59] | 0.15 | 31 | 2.03 | 52 |  |
| 80 | CN1CCN([C@@H]2CCCN(c3cnc(C(N)=O)c(Nc4ccc(C5CCN(c6ccc7c(c6)C(=O)N(C6CCC(=O)NC6=O)C7=O)CC5)cc4)n3)C2)C1=O (some centres unmarked) [Compound 47] | 3.83 | 39 | 43.5 | 61 |  |
